Measurements reported in PubChem BioAssay (NCI).
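Test compounds were applied to cells in 96-well plates for 48 hours at 5 doses. GI50 = concentration required for 50% inhibition of growth. TGI marks complete inhibition of growth.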

How the values were obtained:
Test in all cases: NCI anticancer screen, dose series, 48 h
SR leukemia = system: SR leukemia
LOX IMVI melanoma = system: LOX IMVI melanoma
BT-549 breast = system: BT-549 breast
SF-268 CNS = system: SF-268 CNS
NCI-H226 lung = system: NCI-H226 lung
NCI-H522 lung = system: NCI-H522 lung
SK-OV-3 ovarian = system: SK-OV-3 ovarian
UO-31 renal = system: UO-31 renal
NCI/ADR-RES ovarian = system: NCI/ADR-RES ovarian
NCI-H23 lung = system: NCI-H23 lung

Compound	GI50 (SR leukemia) [µM]	TGI (SR leukemia) [µM]	GI50 (LOX IMVI melanoma) [µM]	TGI (LOX IMVI melanoma) [µM]	GI50 (BT-549 breast) [µM]	TGI (BT-549 breast) [µM]	GI50 (SF-268 CNS) [µM]	TGI (SF-268 CNS) [µM]	GI50 (NCI-H226 lung) [µM]	TGI (NCI-H226 lung) [µM]	GI50 (NCI-H522 lung) [µM]	TGI (NCI-H522 lung) [µM]	GI50 (SK-OV-3 ovarian) [µM]	TGI (SK-OV-3 ovarian) [µM]	GI50 (UO-31 renal) [µM]	TGI (UO-31 renal) [µM]	GI50 (NCI/ADR-RES ovarian) [µM]	TGI (NCI/ADR-RES ovarian) [µM]	GI50 (NCI-H23 lung) [µM]	TGI (NCI-H23 lung) [µM]
Cc1ccc(C2C3Cc4ccccc4C3=NN2c2ccc(S(=O)(=O)/N=c3\scc(-c4ccccc4)n3-c3ccccc3)cc2)cc1 (stereo not given)	11.1	24.5	17.4	31.2	18.8	43.3	16.7	42	21.4	67.2	22	66.8	33.1	> 100	18.4	55.4				
O=C(CN1N=C(c2ccc(F)cc2)CCC1=O)Nc1nc2ccccc2s1			0.179	0.344	4.81		5.59	> 35.9	69.7	> 100	0.187	0.371	> 100	> 100	0.182	0.405	> 28.2	> 100		
CSc1ccc(C2=NN(C(C)=O)C(c3ccc(-c4ccc(Cl)cc4)o3)C2)cc1 (stereo not given)			32.8	> 100	76.4	> 100	21.7	71.4	44.4	> 100	18.7	60.3	28.9	> 100	28.5	> 100	41.4	> 100	86.1	> 100
C[C@@H]1O[C@@H](O[C@@H]2[C@@H](O)[C@H](OCCc3ccc(O)c(O)c3)O[C@H](CO)[C@H]2OC(=O)/C=C/c2ccc(O)c(O)c2)[C@H](O)[C@H](OC2OC[C@](O)(CO)[C@H]2O)[C@H]1O (stereo not given in full)	> 100	> 100	19.4	37	12	27.2		53.4	> 100	> 100	> 100	> 100	> 100	> 100	> 100	> 100				
O=C1C=C(O)C(=Cc2c(O)cc(O)cc2O)C(O)=C1		> 100		> 100				> 100		> 100		> 100		> 100		> 100				> 100
O=C(Nc1ccccc1OC(=O)c1ccccc1)c1ccccc1	3.12	> 100	3.92	> 100			3.98	> 100	> 100	> 100	11.2	77.9	33.6	> 100	13.8	> 100	19.2	> 100	8.05	> 100
Cc1ccc(NC(=O)C(=O)C(C(=O)/C=C/c2ccccc2)C2OC(=O)c3ccccc32)c(C)c1 (stereo not given)		> 100		> 100				> 100		> 100		> 100		> 100		> 100				> 100
ClC1=C(Cl)C(Cl)(Cl)c2c3c(c4c(c21)C(Cl)(Cl)C(Cl)=C4Cl)C(Cl)(Cl)C(Cl)=C3Cl		> 100		> 100				> 100		> 100		> 100		> 100						> 100
CC(C)(C)c1cc2nc(c1)C(C(F)(F)F)(C(F)(F)F)OB(Br)OC2(C(F)(F)F)C(F)(F)F				3.78				17.8						10.7		2.72				17.2
Fc1cccc(F)c1C(Nc1nncs1)Nc1nncs1						> 100		> 100		> 100		> 100		> 100		> 100		> 100		> 100
COc1ccc(NC(=O)C(=O)/C=C(\O)c2ccccc2)cc1		3.41		5.27				> 10						> 10						> 10
O=c1c2cc(F)ccc2sc2c(NCCCNCCO)nc3ccccc3c12			1.68	3.17	8.7	22	1.59	3.21	1.5	3	1.87	3.8			1.57	2.96	1.78	3.44	1.72	3.22
Cc1cc(=O)c2c(O)cc3c(c2o1)CC=C(COC1OC(COC2OC(CO)C(O)C(O)C2O)C(O)C(O)C1O)CO3 (stereo not given)		> 100		> 100				> 100		> 100		> 100		> 100		> 100				> 100
N#CC1(C#N)C(c2ccccc2)C=CC12OCCCO2 (stereo not given)		> 100		> 100				> 100		> 100		32.6		> 100		> 100				91.4
Cc1ccncc1C(N)=O	> 100	> 100	> 100	> 100			> 100	> 100	> 100	> 100	> 100	> 100	> 100	> 100	> 100	> 100	> 100	> 100	> 100	> 100
c1ccc2c(c1)CCc1c-2n[nH]c1-c1[nH]nc2c1CCc1ccccc1-2		> 100		> 100				> 100		> 100				> 100		> 100				> 100
CCOC(=O)/C(I)=C/c1cc(OC)c(OC)c(OC)c1		8.8		5.01				6.73		25.9		12.9		> 100		19.1				14.1
O=C(Cc1nc2ccccc2o1)C(=O)Nc1cccc(C(F)(F)F)c1				> 100				> 100		> 100		> 100		> 100		> 100				> 100
COc1cccc(C2c3cc4c(cc3OC3COC(=O)C32)OCO4)c1OC (stereo not given)				> 100		> 100		> 100		> 100				> 100		> 100		> 100		
N[C@H](COCc1ccccc1)c1ccccc1		56		> 92.2				> 100		77.5		39.1		> 100		87.4				57.5
